Assays:
human GPR34 [1] = biological target: T1, human GPR34 (Homo sapiens, UniProt Q9UPC5); experiment: Human GPR34 antagonist activity as indicated by cAMP in human GPR34-expressing CHO cells; format: cell-based; set-up: expressed in transfected cells; details: for cAMP (%): buffer only = 0%, 2.5 μM Forskolin = 100%
Description: Human GPR34-expressing CHO cells were maintained in nucleic acid-free MEM-a (Invitrogen) containing 10% dialyzed FBS (Invitrogen) and penicillin and streptomycin (BioWhittaker) (hereunder described as culture medium), and on the day before assay the cells were stripped with trypsin/EDTA (Invitrogen), centrifuged, re-suspended in culture medium and seeded 2×10^5 per well, 1 ml/well on a 24-well plate (Nunc). The seeded cells were cultured overnight at 37° C. in a CO2 incubator, and subjected to cAMP assay the next day.
The plate was washed twice, 500 μL/well with Hank's balanced salt solution (HBSS, Invitrogen) containing 20 mM HEPES (1 M HEPES solution, Dojindo) with 0.2 mM 3-isobutyl-1-methylxanthine (IBMX, Wako Pure Chemical) added thereto (hereunder described as assay buffer (HBSS+HEPES-FIBMX)), and kept warm for 30 minutes in a water bath at 37° C. Next, 250 μL of assay buffer (HBSS+HEPES+IBMX) was substituted, and the plate was kept for a further 15 minutes in a water bath at 37° C. 2 μl of GPR34 antagonist compound solution at 250× the final concentration was added and gently stirred with a plate mixer, 2 μL, of lysoPS (Sigma or Alexis) at 250× the final concentration and 5 μM (2× the final concentration) of Forskolin (Wako Pure Chemical) were added, and 250 μL, of assay buffer (HBSS+HEPES+IBMX) was added and reacted for 30 minutes in a water bath at 37° C. In the case of the human GPR34-expressing CHO cells, 2 μL of 50 μM lysoPS was added so that the final concentration would be roughly the EC50 value of 0.2 μM. After completion of the reaction, intracellular cAMP was detected by competitive EIA using a cAMP Screen System (Applied Biosystems). After completion of the assay, 200 μL, of the Assay/lysis buffer for the cAMP Screen System was substituted, and intracellular cAMP was extracted by maintaining the cells for about 40 minutes at 37° C. EIA was then performed in accordance with the cAMP Screen Systems protocols to assay intracellular cAMP.
Relative percentage values were calculated by Microsoft Excel with the cAMP level with only assay buffer (HBSS+HEPES+IBMX) added (“None” in the table) given as 0%, and the cAMP level with the final concentration 2.5 μM Forskolin added given as 100%.

human GPR34 [2] = biological target: T1, human GPR34; experiment: Human GPR34 antagonist activity indicated by changes in intracellular calcium concentration (FLIPR); format: cell-based; set-up: expressed in transfected cells; host or cells: CHO cells (human GPR34CHO line) stably transfected with pCR3.1 human lung Gα16; details: CHO cells expressing human GPR34/Gα16, against 2 μM lysoPS final concentration, Fluo-3AM
Description: CHO cells expressing human GPR34/Gα were diluted to 3×10^4/100 μl in cell culture medium [nucleic acid-free Minimum Essential Alpha Medium (Invitrogen) containing 10% dialyzed fetal bovine serum (Invitrogen) 0.5 mg/ml Geneticin (Invitrogen), penicillin and streptomycin (Invitrogen)], dispensed 100 μl per well into a Black walled 96-well plate (Costar), and cultured overnight in a CO2 incubator. Changes in intracellular calcium concentration were measured with a FLIPR (Molecular Device) by the methods described below.
50 μg of Fluo-3AM (Dojindo) was dissolved in 21 μl of DMSO (Dojindo), an equal amount of 20% pluronic acid (Molecular Probes) was added and mixed, and this was added to 10.6 ml of assay buffer [prepared by adding 20 ml of 1 M HEPES (pH 7.4, Dojindo) to HBSS (Invitrogen), and then adding 10 ml of a solution obtained by dissolving 710 mg of Probenecid (Sigma) in 5 ml of 1 N NaOH and then adding and mixing 5 ml of the HBSS/HEPES solution)] with 105 μl of fetal bovine serum added thereto to prepare a fluorescent dye solution. The medium was removed from the cell plate, 100 μl per well of the fluorescent dye solution was immediately poured in, and the cells were cultured for 1 hour in a CO2 incubator to incorporate the fluorescent dye into the cells. After culture, the cells were washed with the aforementioned assay buffer. The compound was dissolved in DMSO (Wako Pure Chemical), diluted with DMSO as necessary, added to the aforementioned assay buffer to the target concentration and poured into the plate. To measure antagonist activity, 8 μM lysophosphatidyl serine (lysoPS, Alexis) solution (2 μM final concentration during reaction) was poured into the plate, which was set in the FLIPR. Following these preliminaries, the agonist effect was measured in the FLIPR by measuring changes in intracellular calcium concentration up to 180 seconds after addition of the sample, and after 200 seconds lysoPS was added and the antagonist effect was measured. In the case of the agonist effect, the EC50 value of the added compound was calculated from the dose reaction curve using changes in fluorescent strength from 0 to 180 seconds after the start of the reaction. In the case of the antagonist effect, the IC50 was calculated from the dose reaction curve using changes in maximum fluorescent strength after 200 to 380 seconds of reaction time. The data was analyzed using “GraphPad PRISM4”.

[3] = system: rat peritoneal mast cells; experiment: Degranulation inhibiting activity in rat peritoneal mast cells (β-hexosaminidase release); format: cell-based; details: for degranulation of rat peritoneal mast cells due to LysoPS and DNP-BSA stimulation: 10 μM compound, co-stimulation with 3 μM LysoPS and 100 ng/ml DNP-BSA = 100%, spontaneous degranulation = 0%
Description: Ice-cooled mast cell medium (hereunder called MCM: 150 mM NaCl, 3.7 mM KCl, 3.0 mM NaH2PO4, 3.5 mM KH2PO4, 5.6 mM (D)-Glucose, 0.1% bovine serum albumin (BSA), 0.1% gelatin, 10 U/ml heparin, pH 6.8) was injected intraperitoneally into rats, about 40 ml per rat, the abdomens were massaged for about 2 minutes and then opened along the median line, and ascites was collected. The collected ascites were filtered with a cell strainer (Becton Dickinson) and centrifuged for 7 minutes at 50×g, and the precipitated cells were suspended in MCM and then centrifuged again for 7 minutes at 50×g. The precipitated cells were suspended in 5 ml of MCM, layered over 2 ml of 32% (w/v) BSA solution (dissolved in 0.9% NaCL), and left for 20 minutes at room temperature. This was centrifuged for 15 minutes at room temperature at 300×g, the cells between the MCM and BSA solution were discarded, and the precipitated cells were suspended in MCM and washed twice by being centrifuged for 5 minutes at 300×g. The precipitated cells were suspended in assay buffer (150 mM NaCl, 3.7 mM KCl, 3.0 mM NaH2PO4, 3.5 mM KH2PO4, 0.9 mM CaCl2, 5.6 mM (D)-Glucose, 0.01% BSA, pH 6.8), and these cells were used in the following test.
RPMC cells suspended in assay buffer were passively sensitized by adding 10 μg/ml of monoclonal mouse anti-DNP-IgE (Seikagaku) and leaving them for 30 minutes on ice. After 5 minutes of centrifugation at 300×g, the precipitated cells were washed 3 times with assay buffer. The RPMC cells suspended in assay buffer were dispensed on 96-well V-bottom plates, 2×10^4 cells per well. The assay was performed with n=3 under each set of reaction conditions. The plates were maintained for 5 minutes at 37° C., the test compound was added, and after 15 minutes lysoPS (Sigma) was added to a final concentration of 3 μM and DNP-BSA (Calbiochem) to a final concentration of 100 ng/ml for a final capacity of 200 and left on a water bath at 37° C. After 20 minutes, the plate was ice cooled to stop RPMC activation, followed by 5 minutes of centrifugation at 300×g, and β-hexosaminidase activity in the supernatant was measured using 4-methylumbelliferyl-2-acetamido-2-deoxy-β-D-glucopyranoside (Wako Pure Chemical) degradation as the indicator.

[4] = system: rat peritoneal mast cells; experiment: as above; format: cell-based
human GPR34 [5] = biological target: T1, human GPR34; experiment: Reactivity of human GPR34CHO cell strain stably expressing Gα16 to lysophosphatidyl serine (FLIPR); format: cell-based; set-up: expressed in transfected cells; host or cells: CHO cells (human GPR34CHO line) stably transfected with pCR3.1 human lung Gα16; details: Fluo 3-AM, 3 minutes after addition; concentration-dependent
Description: The reactivity of the human GPR34CHO cell strain stably expressing Gα16 to lysophosphatidyl serine (lysoPS) was investigated by the FLIPR (Molecular Devices) assay method. The fluorescent calcium indicator Fluo 3-AM (Wako Pure Chemical) was incorporated into the human GPR34CHO cell strain stably expressing Gα16, and the cells were washed with assay buffer. Various concentrations of 50 μl lysophosphatidyl serine solution were added to cells immersed in 100 μl of assay buffer, and the intracellular fluorescent strength 3 minutes after addition was measured by FLIPR.

T1 sequence (Q9UPC5 whole entry): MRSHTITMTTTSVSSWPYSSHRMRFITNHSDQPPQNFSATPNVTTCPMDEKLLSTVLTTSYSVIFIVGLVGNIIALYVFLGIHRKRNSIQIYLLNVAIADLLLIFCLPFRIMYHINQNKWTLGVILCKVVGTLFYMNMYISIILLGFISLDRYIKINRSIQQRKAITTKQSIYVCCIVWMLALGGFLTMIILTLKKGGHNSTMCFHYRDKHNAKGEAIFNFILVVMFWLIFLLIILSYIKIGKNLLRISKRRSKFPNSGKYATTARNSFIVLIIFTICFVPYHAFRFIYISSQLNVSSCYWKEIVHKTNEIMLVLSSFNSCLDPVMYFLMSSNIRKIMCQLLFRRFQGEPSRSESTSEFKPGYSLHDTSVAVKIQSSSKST

Row | Compound | melting point [°C] | IC50 (human GPR34 [2]) [nM] | degranulation of rat peritoneal mast cells due to LysoPS and DNP-BSA stimulation [3] [%] | also measured
1 | O=C(Cc1ccc(OCc2ccc(F)cc2)cc1)NC1(C(=O)O)Cc2ccc(-c3ccc(Cl)cc3)cc2C1 (centres unmarked) [Example B134] | 208 to 209 |  |  | cAMP (%) (human GPR34 [1]; 10 μM compound + 2.5 μM Forskolin + 0.2 μM LysoPS): 299%; restoration of cAMP levels (in words) (human GPR34 [1]; at 10 μM): restored cAMP levels to at or above the level before Forskolin stimulus
2 | O=C(N[C@@H](Cc1ccc(OCc2ccc(F)cc2)cc1)C(=O)O)c1cc2ccc(-c3ccc(Cl)cc3)cc2o1 [Example C157, N-{[6-(4-Chlorophenyl)-1-benzofuran-2-yl]carbonyl}-O-(4-fluorobenzyl) tyrosine] | 166 to 168 | ≤ 1000 | 4.8 | 
3 | lisophosphatidylserine [lysoPS] |  |  |  | RPMC degranulation ([4]; 100 ng/ml DNP-BSA stimulus + 0.1 μM lysoPS added simultaneously): 8.4%; RPMC degranulation ([4]; 100 ng/ml DNP-BSA stimulus + 0.3 μM lysoPS added simultaneously): 14.7%; RPMC degranulation ([4]; 100 ng/ml DNP-BSA stimulus + 1 μM lysoPS added simultaneously): 26.0%; RPMC degranulation ([4]; 100 ng/ml DNP-BSA stimulus + 10 μM lysoPS added simultaneously): 45.2%; RPMC degranulation ([3]; 100 ng/ml DNP-BSA stimulus + 3 μM lysoPS added simultaneously): 36.7%; cAMP (%) (human GPR34 [1]; 0.2 μM LysoPS + 2.5 μM Forskolin): 43%; EC50 (human GPR34 [1]; human GPR34-expressing CHO cells, cAMP assay, read-out: EC50 value of lysoPS): ~200 nM
4 | lysophosphatidyl serine |  |  |  | intracellular fluorescent strength (intracellular calcium), in words (human GPR34 [5]): caused a rise in intracellular fluorescent strength

Continued, in another order:

Row | melting point [°C] | IC50 (human GPR34 [2]) [nM] | Compound | degranulation of rat peritoneal mast cells due to LysoPS and DNP-BSA stimulation [3] [%] | also measured
5 | 222 | ≤ 1000 | CN(C(=O)c1cn2ccc(-c3ccc(Cl)cc3)cc2n1)[C@@H](Cc1ccc(OCc2ccccc2)cc1)C(=O)O [Example E51, O-Benzyl-N-{[7-(4-chlorophenyl)imidazo[1,2-a]pyridin-2-yl]carbonyl}-N-methyltyrosine] | 5.0 | 
6 | 262 | ≤ 1000 | Cc1ccc(COc2ccc(C[C@H](NC(=O)c3cn4ccc(-c5ccc(Cl)cc5)cc4n3)C(=O)O)cc2)cc1 [Example E59, N-{[7-(4-Chlorophenyl)imidazo[1,2-a]pyridin-2-yl]carbonyl}-O-(4-methylbenzyl)tyrosine] | 5.1 | 
7 | 261 | ≤ 1000 | O=C(N[C@@H](Cc1ccc(OCc2ccc(Cl)cc2)cc1)C(=O)O)c1cn2ccc(-c3ccc(Cl)cc3)cc2n1 [Example E63, O-(4-Chlorobenzyl)-N-{[7-(4-chlorophenyl)imidazo[1,2-a]pyridin-2-yl]carbonyl}tyrosine] | 5.7 | 
8 | 245 | ≤ 1000 | CCc1ccc(COc2ccc(C[C@H](NC(=O)c3cn4ccc(-c5ccc(Cl)cc5)cc4n3)C(=O)O)cc2)cc1 [Example E65, N-{[7-(4-Chlorophenyl)imidazo[1,2-a]pyridin-2-yl]carbonyl}-O-(4-ethylbenzyl) tyrosine] | 8.8 | 

Reference: patent US20100130737A1, “Regulating Agent of GPR34 Receptor Function” (TAKEDA PHARMACEUTICAL COMPANY LIMITED, priority 2005, published 2010)
